Patent US20100113457A1, “NOVEL PYRIDAZINE DERIVATIVES” (SYNGENTA CROP PROTECTION, INC., priority 2006, published 2010)

Experiments:
[1] = system: Alternaria Solani; experiment: Alternaria solani / tomato / preventive; format: in vivo; settings: 96 h, spray, tomato plants cv. Roter Gnom, assessed 4 days after inoculation, read-out: inhibition of fungal infestation
Description: (§1) Alternaria Solani/Tomato/Preventive (Action Against Alternaria on Tomato) 4 weeks old tomato plants cv. Roter Gnom are treated with the formulated test compound in a spray chamber. Two days after application tomato plants are inoculated by spraying a spore suspension on the test plants. After an incubation period of 4 days at 22° C./18° C. and 95% r. h. in a greenhouse the disease incidence is assessed.

[2] = system: Botrytis Cinerea; experiment: Botrytis cinerea / tomato / preventive; format: in vivo; settings: 72 h, spray, tomato plants cv. Roter Gnom, assessed 3 days after inoculation, read-out: inhibition of fungal infestation
Description: as §1, with “Botrytis Cinerea/Tomato/Preventive (Action” for “Alternaria Solani/Tomato/Preventive (Action”, “Against Botrytis” for “Against Alternaria”, “of 3” for “of 4”, “at 20°” for “at 22° C./18°”

[3] = system: Puccinia Recondita; experiment: Puccinia recondita / wheat / preventive (brown rust); format: in vivo; settings: 264 h, spray, wheat plants cv. Arina, assessed 11 days after inoculation, read-out: inhibition of fungal infestation
Description: Puccinia Recondita/Wheat/Preventive (Action Against Brown Rust on Wheat) 1 week old wheat plants cv. Arina are treated with the formulated test compound in a spray chamber. One day after application wheat plants are inoculated by spraying a spore suspension ([…] uredospores/ml) on the test plants. After an incubation period of 1 day at 20° C. and 95% r. h. plants are kept for 10 days 20° C./18° C. (day/night) and 60% r.h. in a greenhouse. The disease incidence is assessed 11 days after inoculation.

[4] = system: Magnaporthe Grisea (Pyricularia oryzae); experiment: whole plant or invertebrate; format: in vivo; settings: 144 h, read-out: inhibition of fungal infestation
[5] = system: Prenophora Teres (Helminthosporium Teres); experiment: Pyrenophora teres / barley / preventive (net blotch); format: in vivo; settings: 96 h, spray, barley plants cv. Regina, assessed 4 days after inoculation, read-out: inhibition of fungal infestation
Description: Prenophora Teres (Helminthosporium Teres)/Barley/Preventive (Action Against Net Blotch on Barley) 1-week-old barley plants cv. Regina are treated with the formulated test compound in a spray chamber. Two days after application barley plants are inoculated by spraying a spore suspension (2.6×10^4 conidia/ml) on the test plants. After an incubation period of 4 days at 20° C. and 95% r. h. the disease incidence is assessed.

[6] = system: Septoria Tritici; experiment: Septoria tritici / wheat / preventive (leaf spot); format: in vivo; settings: Zymoseptoria tritici, spray, wheat plants cv. Riband, assessed 16-18 days after inoculation, read-out: inhibition of fungal infestation
Description: Septoria Tritici/Wheat/Preventive (Action Against Septoria Leaf Spot on Wheat) 2 weeks old wheat plants cv. Riband are treated with the formulated test compound in a spray chamber. One day after application wheat plants are inoculated by spraying a spore suspension (10^6 conidia/ml) on the test plants. After an incubation period of 1 day at 22° C./21° C. and 95% r. h. plants are kept at 22° C./21° C. and 70% r.h. in a greenhouse. The disease incidence is assessed 16-18 days after inoculation.

[7] = system: Uncinula Necator; experiment: Uncinula necator / grape / preventive (powdery mildew); format: in vivo; settings: Erysiphe necator, 168 h, spray, grape seedlings cv. Gutedel, assessed 7 days after inoculation, read-out: inhibition of fungal infestation
Description: Uncinula Necator/Drape/Preventive (Action Against Powdery Mildew on Grape) 5 weeks old grape seedlings cv. Gutedel are treated with the formulated test compound in a spray chamber. One day after application grape plants are inoculated by shaking plants infected with grape powdery mildew above the test plants. After an incubation period of 7 days at 24° C./22° C. and 70% r. h. under a light regime of 14/10 h (light/dark) the disease incidence is assessed.

SMILES | inhibition at 200 ppm [1] [%] | inhibition at 200 ppm [2] [%] | inhibition at 200 ppm [3] [%] | inhibition at 200 ppm [4] [%] | inhibition at 200 ppm [5] [%] | inhibition at 200 ppm [6] [%] | inhibition at 200 ppm [7] [%] | melting point [°C]
Cc1nnc(F)c(-c2c(F)cc(F)cc2F)c1-c1ccc(Cl)cc1 [I.c.127, 4-(4-chlorophenyl)-6-fluoro-3-methyl-5-(2,4,6-trifluorophenyl)-pyridazine] | ≥ 80 | ≥ 80 | ≥ 80 | ≥ 80 | ≥ 80 | ≥ 80 | ≥ 80 | –
Cc1nnc(OCC(F)(F)F)c(-c2c(F)cc(F)cc2F)c1-c1ccc(Cl)cc1 [I.c.129, 4-(4-chlorophenyl)-3-methyl-6-(2,2,2-trifluoroethoxy)-5-(2,4,6-trifluorophenyl)-pyridazine] | ≥ 80 | – | – | – | – | ≥ 80 | ≥ 80 | 105 to 108
